Here are results for 32 compounds from patent US20250353853A1, “FLAVIVIRUS INHIBITORS” (IRBM S.P.A., priority 2022, published 2025).

For this assay, the system named is ZIKV replicon in Vero cells. The assay can be described thus: ZIKV Replication Inhibition Assay (replicon, NanoLuc). Conditions: Zika virus, Vero, 72 h, read-out: Zika Replicon EC50. A general note: Replicon systems follow genome replication, usually without infectious particles.

Counter-ions that a name gives are not always drawn.

The EC50 is the concentration that produces a half-maximal response. For the compound `COc1cc(NC(=O)[N-]c2c[n+](C(C)Cc3ccccc3)no2)cc(C(F)(F)F)c1` (centres unmarked) [Example 34, ((3-methoxy-5-(trifluoromethyl)phenyl)carbamoyl)(3-(1-phenylpropan-2-yl)-1,2,3-oxadiazol-3-ium-5-yl)amide], the EC50 is greater than 20000 nM. With `Cc1nccnc1-c1ccc(C[n+]2cc([N-]C(=O)Nc3cccc(C(F)(F)F)c3)on2)cc1` [Example 86, (3-(4-(3-methylpyrazin-2-yl)benzyl)-1,2,3-oxadiazol-3-ium-5-yl)((3-(trifluoromethyl)phenyl)carbamoyl)amide] the figure was 100 to 1000 nM; with `Cc1nc(OCCN(C)C)ncc1-c1ccc(C[n+]2cc([N-]C(=O)Nc3cccc(C(F)(F)F)c3)on2)nc1` [Example 43, (3-((5-(2-(2-(dimethylamino)ethoxy)-4-methylpyrimidin-5-yl)pyridin-2-yl)methyl)-1,2,3-oxadiazol-3-ium-5-yl)((3-(trifluoromethyl)phenyl)carbamoyl)amide], 100 to 1000 nM; with `O=C([N-]c1c[n+](Cc2ccccc2)no1)Nc1cccc(C(F)(F)F)c1` [Example 6, (3-Benzyl-1,2,3-oxadiazol-3-ium-5-yl)((3-(trifluoromethyl)phenyl)carbamoyl) amide], 1000 to 20000 nM. Take `CC(Cc1ccccc1)[n+]1cc([N-]C(=O)Nc2ccc3ncccc3c2)on1` (centres unmarked) [Example 12, (3-(1-phenylpropan-2-yl)-1,2,3-oxadiazol-3-ium-5-yl)(quinolin-6-ylcarbamoyl) amide]: the EC50 is greater than 20000 nM. The same measure for `COc1ncc(-c2ccc(C[n+]3cc([N-]C(=O)Nc4ccccc4)on3)cc2)c(C)n1` [Example 115, (3-(4-(2-methoxy-4-methylpyrimidin-5-yl)benzyl)-1,2,3-oxadiazol-3-ium-5-yl)(phenylcarbamoyl)amide]: 1000 to 20000 nM. `Cc1noc(C)c1-c1ccc([C@H](CN)[n+]2cc([N-]C(=O)Nc3cccc(C(F)(F)F)c3)on2)cc1` [Example 99, (R)-(3-(2-amino-1-(4-(3,5-dimethylisoxazol-4-yl)phenyl)ethyl)-1,2,3-oxadiazol-3-ium-5-yl)((3-(trifluoromethyl)phenyl)carbamoyl)amide formate]: the EC50 was less than 100 nM. The same measure for `O=C([N-]c1c[n+](Cc2ccc(-c3cccc4c3CNC4)cn2)no1)Nc1cccc(C(F)(F)F)c1` [Example 119, (3-((5-(isoindolin-4-yl)pyridin-2-yl)methyl)-1,2,3-oxadiazol-3-ium-5-yl)((3-(trifluoromethyl)phenyl)carbamoyl)amide]: 100 to 1000 nM; for `NC[C@H](Cc1ccccc1)[n+]1cc([N-]C(=O)Nc2cccc(C(F)(F)F)c2)on1` [Example 54, (S)-(3-(1-amino-3-phenylpropan-2-yl)-1,2,3-oxadiazol-3-ium-5-yl)((3-(trifluoromethyl)phenyl)carbamoyl)amide formate]: greater than 20000 nM; for `C[C@H](Cc1ccccc1)[n+]1cc([N-]C(=O)Nc2cccc(C(F)(F)F)c2)on1` [Example 13, (R)-(3-(1-phenylpropan-2-yl)-1,2,3-oxadiazol-3-ium-5-yl)((3-(trifluoromethyl)phenyl)carbamoyl)amide]: 1000 to 20000 nM.

With `COc1ncnc(C)c1-c1ccc(C[n+]2cc([N-]C(=O)Nc3cccc(C(F)(F)F)c3)on2)cc1` [Example 111, (3-(4-(4-methoxy-6-methylpyrimidin-5-yl)benzyl)-1,2,3-oxadiazol-3-ium-5-yl)((3-(trifluoromethyl)phenyl)carbamoyl)amide], the EC50 was less than 100 nM. Regarding `O=C([N-]c1c[n+](Cc2ccc(-c3cncnc3C(F)(F)F)cc2)no1)Nc1cccc(C(F)(F)F)c1` [Example 80, ((3-(trifluoromethyl)phenyl)carbamoyl)(3-(4-(4-(trifluoromethyl)pyrimidin-5-yl)benzyl)-1,2,3-oxadiazol-3-ium-5-yl)amide], the EC50 is less than 100 nM.

With `CC(Cc1ccccc1)[n+]1cc([N-]C(=O)Nc2cc(C(F)(F)F)ccn2)on1` (centres unmarked) [Example 16, (3-(1-phenylpropan-2-yl)-1,2,3-oxadiazol-3-ium-5-yl)((4-(trifluoromethyl)pyridin-2-yl)carbamoyl)amide], the EC50 is greater than 20000 nM. As to `O=C([N-]c1c[n+](Cc2ccc(-c3cnn(C4CCNCC4)c3)nc2)no1)Nc1cccc(C(F)(F)F)c1` [Example 117, (3-((6-(1-(piperidin-4-yl)-1H-pyrazol-4-yl)pyridin-3-yl)methyl)-1,2,3-oxadiazol-3-ium-5-yl)((3-(trifluoromethyl)phenyl)carbamoyl)amide], the EC50 was in the range of 1000 to 20000 nM. `O=C([N-]c1c[n+](CCc2ccccc2)no1)Nc1cccc(C(F)(F)F)c1` [Example 5, (3-phenethyl-1,2,3-oxadiazol-3-ium-5-yl)((3-(trifluoromethyl)phenyl)carbamoyl)amide]: the EC50 fell in the range of 100 to 1000 nM. Take `O=C([N-]c1c[n+](Cc2ccc(B(O)O)cn2)no1)Nc1cccc(C(F)(F)F)c1` [Example 122, (3-((5-boronopyridin-2-yl)methyl)-1,2,3-oxadiazol-3-ium-5-yl)((3-(trifluoromethyl)phenyl)carbamoyl)amide]: the EC50 is greater than 20000 nM. For `C[C@@H](c1ccc(Br)cc1)[n+]1cc([N-]C(=O)Nc2cncc(C(F)(F)F)c2)on1` [Example 76, (S)-(3-(1-(4-bromophenyl)ethyl)-1,2,3-oxadiazol-3-ium-5-yl)((5-(trifluoromethyl)pyridin-3-yl)carbamoyl)amide], the EC50 lay in the range of 100 to 1000 nM. The same measure for `O=C([N-]c1c[n+]([C@H](CO)c2ccccc2)no1)Nc1cccc(C(F)(F)F)c1` [Example 31, (S)-(3-(2-hydroxy-1-phenylethyl)-1,2,3-oxadiazol-3-ium-5-yl)((3-(trifluoromethyl)phenyl)carbamoyl)amide]: greater than 20000 nM; for `O=C([N-]c1c[n+](Cc2ccc(-c3cnn4c3CNCC4)cn2)no1)Nc1cccc(C(F)(F)F)c1` [Example 124, (3-((5-(4,5,6,7-tetrahydropyrazolo[1,5-a]pyrazin-3-yl)pyridin-2-yl)methyl)-1,2,3-oxadiazol-3-ium-5-yl)((3-(trifluoromethyl)phenyl)carbamoyl)amide]: 100 to 1000 nM. Take `NCc1ccccc1-c1ccc(C[n+]2cc([N-]C(=O)Nc3cccc(C(F)(F)F)c3)on2)nc1` [Example 121, (3-((5-(2-(aminomethyl)phenyl)pyridin-2-yl)methyl)-1,2,3-oxadiazol-3-ium-5-yl)((3-(trifluoromethyl)phenyl)carbamoyl)amide]: the EC50 lay in the range of 100 to 1000 nM. With `C=C(c1ccccc1)[n+]1cc([N-]C(=O)Nc2cccc(C(F)(F)F)c2)on1` [Example 35, (3-(1-Phenylvinyl)-1,2,3-oxadiazol-3-ium-5-yl)((3-(trifluoromethyl)phenyl)carbamoyl)amide] the figure was 1000 to 20000 nM; with `O=C([N-]c1c[n+](Cc2ccc(-c3cncnc3)cn2)no1)Nc1cccc(C(F)(F)F)c1` [Example 108, (3-((5-(pyrimidin-5-yl)pyridin-2-yl)methyl)-1,2,3-oxadiazol-3-ium-5-yl)((3-(trifluoromethyl)phenyl)carbamoyl)amide], 100 to 1000 nM; with `COc1ncncc1-c1cccc(C[n+]2cc([N-]C(=O)Nc3cccc(C(F)(F)F)c3)on2)c1` [Example 84, (3-(3-(4-methoxypyrimidin-5-yl)benzyl)-1,2,3-oxadiazol-3-ium-5-yl)((3-(trifluoromethyl)phenyl)carbamoyl)amide], 100 to 1000 nM. Take `O=C([N-]c1c[n+](Cc2ccc(-c3ccc(CN4CCOCC4)cc3)cc2)no1)Nc1cccc(C(F)(F)F)c1` [Example 56, (3-((4′-(morpholinomethyl)-[1,1′-biphenyl]-4-yl)methyl)-1,2,3-oxadiazol-3-ium-5-yl)((3-(trifluoromethyl)phenyl)carbamoyl)amide]: the EC50 lay within 1000 to 20000 nM. For the compound `Cc1ncncc1-c1csc(C[n+]2cc([N-]C(=O)Nc3cccc(C(F)(F)F)c3)on2)c1` [Example 110, (3-((4-(4-methylpyrimidin-5-yl)thiophen-2-yl)methyl)-1,2,3-oxadiazol-3-ium-5-yl)((3-(trifluoromethyl)phenyl)carbamoyl)amide], the EC50 fell in the range of 100 to 1000 nM. With `Cc1ccccc1-c1ccc(C[n+]2cc([N-]C(=O)Nc3cccc(C(F)(F)F)c3)on2)cc1` [Example 21, (3-((2′-methyl-[1,1′-biphenyl]-4-yl)methyl)-1,2,3-oxadiazol-3-ium-5-yl)((3-(trifluoromethyl)phenyl)carbamoyl)amide] the figure was 100 to 1000 nM. Regarding `O=C([N-]c1c[n+](Cc2ccc(-c3cncnc3)nc2)no1)Nc1cccc(C(F)(F)F)c1` [Example 103, (3-((6-(pyrimidin-5-yl)pyridin-3-yl)methyl)-1,2,3-oxadiazol-3-ium-5-yl)((3-(trifluoromethyl)phenyl)carbamoyl)amide], the EC50 is 100 to 1000 nM.

For `Cc1noc(C)c1-c1ccc(C[n+]2cc([N-]C(=O)Nc3cccc(C(F)(F)F)c3)on2)nc1` [Example 109, (3-((5-(3,5-dimethylisoxazol-4-yl)pyridin-2-yl)methyl)-1,2,3-oxadiazol-3-ium-5-yl)((3-(trifluoromethyl)phenyl)carbamoyl)amide], the EC50 is less than 100 nM. Take `O=C([N-]c1c[n+](Cc2cccc(-c3ccccc3)c2)no1)Nc1cccc(C(F)(F)F)c1` [Example 27, (3-([1,1′-biphenyl]-3-ylmethyl)-1,2,3-oxadiazol-3-ium-5-yl)((3-(trifluoromethyl)phenyl)carbamoyl)amide]: the EC50 fell in the range of 1000 to 20000 nM. With `O=C([N-]c1c[n+](-c2ccccc2)no1)Nc1cccc(C(F)(F)F)c1` [Example 7, (3-phenyl-1,2,3-oxadiazol-3-ium-5-yl)((3-(trifluoromethyl)phenyl)carbamoyl) amide] the figure was 1000 to 20000 nM. With `COc1ncc(-c2ccc(C[n+]3cc([N-]C(=O)Nc4cccc(Cl)c4)on3)cc2)c(C)n1` [Example 113, ((3-chlorophenyl)carbamoyl)(3-(4-(2-methoxy-4-methylpyrimidin-5-yl)benzyl)-1,2,3-oxadiazol-3-ium-5-yl)amide] the figure was 100 to 1000 nM. Take `CC(Cc1ccccc1)[n+]1cc([N-]C(=O)Nc2ccc3ccccc3c2)on1` (centres unmarked) [Example 3, (Naphthalen-2-ylcarbamoyl)(3-(1-phenylpropan-2-yl)-1,2,3-oxadiazol-3-ium-5-yl)amide]: the EC50 is greater than 20000 nM.
